# Assay results from patent publication US11090319B2, “Therapeutic uses of pharmaceutical compositions comprising cyclic boronic acid ester derivatives” (Melinta Subsidiary Corp., priority 2010, dated 2021).
# Read-outs that look alike come from different tables or passages of the source.
# How the values were obtained:
# [1] = molecular target: various β-lactamases (bacterial lysates) (Escherichia coli, UniProt A0A649V088); assay: biochemical; format: biochemical; details: read-out: AZT IC50 KP1005 CTX-M-14
# [2] = molecular target: various β-lactamases (bacterial lysates) (Escherichia coli, UniProt A0A5R8T042); assay: biochemical; format: biochemical; details: read-out: AZT IC50 KP1009 CTX-M-15
# [3] = molecular target: various β-lactamases (bacterial lysates) (Salmonella typhimurium, UniProt P0A1V8); assay: biochemical; format: biochemical; details: AZT IC50 KPX1001 OXA-2
# [4] = molecular target: various β-lactamases (bacterial lysates) (Klebsiella pneumoniae, UniProt Q9F663); assay: biochemical; format: biochemical
# [5] = molecular target: various β-lactamases (bacterial lysates) (Pseudomonas aeruginosa, UniProt P14489); assay: biochemical; format: biochemical; details: AZT IC50 KP1007 OXA-10
# [6] = molecular target: various β-lactamases (bacterial lysates) (Klebsiella pneumoniae, UniProt Q9F663, H272Y); assay: biochemical; format: biochemical
# [7] = system: strains expressing class A ESBLs; format: cell-based
# Method: Selected β-lactamase inhibitors were also tested for their ability to potentiate the monobactam tigemonam.
# [8] = system: EC1007 Escherichia coli KPC-3; assay: Checkerboard assay, biapenem potentiation; details: Biapenem MIC 8-fold; EC1007 KPC-3 class A
# [9] = system: SM1000 Serratia marcescens SME-2; assay: Checkerboard assay, biapenem potentiation; details: Biapenem MIC 8-fold; SM1000 SME-2 class A
# [10] = system: ECL1004 Enterobacter cloacae NMC-A; assay: Checkerboard assay, biapenem potentiation; details: Biapenem MIC 8-fold; ECL1004 NMC-A class A
# [11] = molecular target: various β-lactamases (bacterial lysates) (Escherichia coli, UniProt Q53TY8); assay: Inhibition of nitrocefin cleavage by bacterial lysates, Table 11; format: biochemical; details: lysate EC1010 pAmpC (CMY-6), read-out: NCF IC50 EC1010 pAmpC (CMY-6)
# [12] = lysate KP1004 KPC-2, aztreonam cleavage, read-out: AZT IC50 KP1004 KPC-2 (converted)
# [13] = lysate KP1008 KPC-2, aztreonam cleavage, read-out: AZT IC50 KP1008 KPC-2
# various β-lactamases (bacterial lysates) (Escherichia coli, UniProt A0A5R8T042), sequence (A0A5R8T042 29-291): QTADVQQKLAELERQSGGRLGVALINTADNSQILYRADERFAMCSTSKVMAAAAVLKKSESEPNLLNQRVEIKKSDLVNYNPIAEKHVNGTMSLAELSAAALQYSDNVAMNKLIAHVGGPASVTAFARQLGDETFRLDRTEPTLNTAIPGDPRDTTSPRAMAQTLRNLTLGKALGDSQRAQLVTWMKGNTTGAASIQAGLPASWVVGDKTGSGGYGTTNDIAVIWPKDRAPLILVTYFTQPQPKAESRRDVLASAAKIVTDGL
# various β-lactamases (bacterial lysates) (Escherichia coli, UniProt A0A649V088), sequence (A0A649V088 29-291): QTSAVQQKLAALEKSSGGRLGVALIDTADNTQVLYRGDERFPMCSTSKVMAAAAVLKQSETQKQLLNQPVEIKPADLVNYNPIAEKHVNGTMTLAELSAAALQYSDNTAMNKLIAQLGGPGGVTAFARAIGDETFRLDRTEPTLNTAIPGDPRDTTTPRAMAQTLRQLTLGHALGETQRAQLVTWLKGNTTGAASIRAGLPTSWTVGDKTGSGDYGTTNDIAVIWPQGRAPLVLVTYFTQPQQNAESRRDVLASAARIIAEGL
# various β-lactamases (bacterial lysates) (Escherichia coli, UniProt Q53TY8), sequence (Q53TY8 entry or part of it): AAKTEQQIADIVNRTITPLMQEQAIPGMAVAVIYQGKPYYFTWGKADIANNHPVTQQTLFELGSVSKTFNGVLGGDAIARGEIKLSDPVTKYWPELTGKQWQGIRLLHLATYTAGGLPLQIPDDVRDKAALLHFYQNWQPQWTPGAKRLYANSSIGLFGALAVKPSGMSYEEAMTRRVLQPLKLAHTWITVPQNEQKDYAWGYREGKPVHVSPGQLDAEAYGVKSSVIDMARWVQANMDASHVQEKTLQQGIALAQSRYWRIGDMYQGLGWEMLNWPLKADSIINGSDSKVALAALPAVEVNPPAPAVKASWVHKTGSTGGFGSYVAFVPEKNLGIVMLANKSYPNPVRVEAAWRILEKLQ
# various β-lactamases (bacterial lysates) (Salmonella typhimurium, UniProt P0A1V8), sequence (P0A1V8 22-275): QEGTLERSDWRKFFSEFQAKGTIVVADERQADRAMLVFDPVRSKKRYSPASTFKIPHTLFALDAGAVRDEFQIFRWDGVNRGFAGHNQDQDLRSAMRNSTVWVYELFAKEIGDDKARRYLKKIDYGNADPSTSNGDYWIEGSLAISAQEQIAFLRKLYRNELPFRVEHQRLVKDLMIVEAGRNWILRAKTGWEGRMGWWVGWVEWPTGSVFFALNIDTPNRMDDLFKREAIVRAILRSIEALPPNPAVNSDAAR
# various β-lactamases (bacterial lysates) (Pseudomonas aeruginosa, UniProt P14489), sequence (P14489 20-266): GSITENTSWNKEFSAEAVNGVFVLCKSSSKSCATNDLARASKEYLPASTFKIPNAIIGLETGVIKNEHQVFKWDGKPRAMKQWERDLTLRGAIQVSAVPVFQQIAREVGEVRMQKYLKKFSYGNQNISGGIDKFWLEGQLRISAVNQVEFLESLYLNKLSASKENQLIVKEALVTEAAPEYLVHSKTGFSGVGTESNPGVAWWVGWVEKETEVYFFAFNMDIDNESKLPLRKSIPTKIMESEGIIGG
# various β-lactamases (bacterial lysates) (Klebsiella pneumoniae, UniProt Q9F663, H272Y), sequence (Q9F663 whole entry H272Y, looked up): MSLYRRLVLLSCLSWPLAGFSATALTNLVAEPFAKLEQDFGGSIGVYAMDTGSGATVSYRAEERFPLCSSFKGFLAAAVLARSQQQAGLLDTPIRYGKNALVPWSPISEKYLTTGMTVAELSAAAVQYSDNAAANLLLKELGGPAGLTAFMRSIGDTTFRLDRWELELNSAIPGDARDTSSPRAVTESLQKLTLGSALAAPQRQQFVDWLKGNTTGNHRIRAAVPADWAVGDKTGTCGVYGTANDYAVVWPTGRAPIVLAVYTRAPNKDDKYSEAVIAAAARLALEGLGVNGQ
# various β-lactamases (bacterial lysates) (Klebsiella pneumoniae, UniProt Q9F663), sequence (Q9F663 whole entry, looked up): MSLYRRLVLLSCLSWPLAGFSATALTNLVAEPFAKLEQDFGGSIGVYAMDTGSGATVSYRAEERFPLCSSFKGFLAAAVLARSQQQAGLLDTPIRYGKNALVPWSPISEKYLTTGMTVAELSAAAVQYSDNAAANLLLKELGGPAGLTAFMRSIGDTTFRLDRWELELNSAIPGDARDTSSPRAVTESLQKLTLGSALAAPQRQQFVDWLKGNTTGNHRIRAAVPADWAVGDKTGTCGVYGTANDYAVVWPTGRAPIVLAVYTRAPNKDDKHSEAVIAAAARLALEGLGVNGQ
SMILES,IC50 [1],IC50 [2],IC50 [3],IC50 [5],IC50 [6],MPC4 CTX-M-14 KP1005 [7],MPC4 CTX-M-15 KP1009 [7],MPC4 SHV-5 ec308 [7],MPC4 SHV-12 KP1010 [7],MPC4 SHV-18 KP1012 [7],MPC4 TEM-10 EC1009 [7],MPC4 TEM-10 ec302 [7],MPC4 TEM-26 ec304 [7],"IC50 [4, 12]","IC50 [4, 13]",IC50 [11],further results
"O=C(O)[C@H]1/C(=C/CO)O[C@@H]2CC(=O)N21 [Clavulanic Acid, reference compound]",275 nM,1240 nM,402 nM,7.43 µM,7430 nM,2.5 µg/mL,1.25 µg/mL,<=0.6 μg/mL,<=0.6 μg/mL,<=0.6 μg/mL,<=0.6 μg/mL,2.5 µg/mL,<=0.6 μg/mL,,,,IC50 ([4]; AZT IC50 KP1004 KPC-2): 3720 nM; IC50 ([4]; AZT IC50 KP1008 KPC-2): 11100 nM
"O=C(O)CC1CC[C@H](NC(=O)Cc2ccccc2)B(O)O1 (stereo partly drawn) [Compound 2, 2-((3R)-2-hydroxy-3-(2-phenylacetamido)-1,2-oxaborinan-6-yl)acetic acid]",,,,,,,,,,,,,,,,,MPC8 [8]: X (MPC8 of less than 0.16 μg/mL); MPC8 [9]: Y (MPC8 of 0.16 μg/mL to 1 μg/mL); MPC8 [10]: Y (MPC8 of 0.16 μg/mL to 1 μg/mL)
"CC(C)(O/N=C(\C(=O)N[C@H]1CC[C@@H](CC(=O)O)OB1O)c1csc(N)n1)C(=O)O [Compound 36, 2-((Z)-1-(2-aminothiazol-4-yl)-2-((3R,6S)-6-(carboxymethyl)-2-hydroxy-1,2-oxaborinan-3-ylamino)-2-oxoethylideneaminooxy)-2-methylpropanoic acid]",< 1170 nM,< 1170 nM,> 4670 nM,> 4.67 µM,< 1170 nM,,,,,,,,,1170 to 4670 nM,1170 to 4670 nM,> 4.67 µM,
"O=C(O)C[C@@H]1CC[C@H](NC(=O)c2ccccc2)B(O)O1 [Compound 37, 2-((3R,6S)-3-benzamido-2-hydroxy-1,2-oxaborinan-6-yl)acetic acid]",< 1800 nM,< 1800 nM,1800 to 7220 nM,1.8 to 7.22 µM,< 1800 nM,Z (key: X: MPC@4 of less than 2 μg/mL; Y: MPC@4 of 2 μg/mL to 10 μg/mL; Z: MPC@4 of greater than 10 μg/mL),Z (key: X: MPC@4 of less than 2 μg/mL; Y: MPC@4 of 2 μg/mL to 10 μg/mL; Z: MPC@4 of greater than 10 μg/mL),Z (key: X: MPC@4 of less than 2 μg/mL; Y: MPC@4 of 2 μg/mL to 10 μg/mL; Z: MPC@4 of greater than 10 μg/mL),Z (key: X: MPC@4 of less than 2 μg/mL; Y: MPC@4 of 2 μg/mL to 10 μg/mL; Z: MPC@4 of greater than 10 μg/mL),Z (key: X: MPC@4 of less than 2 μg/mL; Y: MPC@4 of 2 μg/mL to 10 μg/mL; Z: MPC@4 of greater than 10 μg/mL),Z (key: X: MPC@4 of less than 2 μg/mL; Y: MPC@4 of 2 μg/mL to 10 μg/mL; Z: MPC@4 of greater than 10 μg/mL),Z (key: X: MPC@4 of less than 2 μg/mL; Y: MPC@4 of 2 μg/mL to 10 μg/mL; Z: MPC@4 of greater than 10 μg/mL),Z (key: X: MPC@4 of less than 2 μg/mL; Y: MPC@4 of 2 μg/mL to 10 μg/mL; Z: MPC@4 of greater than 10 μg/mL),< 1800 nM,< 1800 nM,,
"Nc1nc(CC(=O)N[C@H]2CC[C@@H](CC(=O)O)OB2O)cs1 [Compound 39, 2-((3R,6S)-3-(2-(2-aminothiazol-4-yl)acetamido)-2-hydroxy-1,2-oxaborinan-6-yl)acetic acid]",1600 to 6390 nM,1600 to 6390 nM,1600 to 6390 nM,> 6.39 µM,< 1600 nM,,,,,,,,,< 1600 nM,1600 to 6390 nM,> 6.39 µM,
"CO/N=C(\C(=O)N[C@H]1CC[C@@H](CC(=O)O)OB1O)c1csc(N)n1 [Compound 40, 2-((3R,6S)-3-((Z)-2-(2-aminothiazol-4-yl)-2-(methoxyimino)acetamido)-2-hydroxy-1,2-oxaborinan-6-yl)acetic acid]",< 1400 nM,< 1400 nM,< 1400 nM,1.4 to 5.62 µM,1400 to 5620 nM,,,,,,,,,1400 to 5620 nM,> 5620 nM,1.4 to 5.62 µM,
"NCCSCC(=O)N[C@H]1CC[C@@H](CC(=O)O)OB1O [Compound 48, 2-((3R,6S)-3-(2-(2-aminoethylthio)acetamido)-2-hydroxy-1,2-oxaborinan-6-yl)acetic acid]",1720 to 6890 nM,> 6890 nM,1720 to 6890 nM,> 6.89 µM,< 1720 nM,Z (key: X: MPC@4 of less than 2 μg/mL; Y: MPC@4 of 2 μg/mL to 10 μg/mL; Z: MPC@4 of greater than 10 μg/mL),Z (key: X: MPC@4 of less than 2 μg/mL; Y: MPC@4 of 2 μg/mL to 10 μg/mL; Z: MPC@4 of greater than 10 μg/mL),Z (key: X: MPC@4 of less than 2 μg/mL; Y: MPC@4 of 2 μg/mL to 10 μg/mL; Z: MPC@4 of greater than 10 μg/mL),Z (key: X: MPC@4 of less than 2 μg/mL; Y: MPC@4 of 2 μg/mL to 10 μg/mL; Z: MPC@4 of greater than 10 μg/mL),Z (key: X: MPC@4 of less than 2 μg/mL; Y: MPC@4 of 2 μg/mL to 10 μg/mL; Z: MPC@4 of greater than 10 μg/mL),Z (key: X: MPC@4 of less than 2 μg/mL; Y: MPC@4 of 2 μg/mL to 10 μg/mL; Z: MPC@4 of greater than 10 μg/mL),Z (key: X: MPC@4 of less than 2 μg/mL; Y: MPC@4 of 2 μg/mL to 10 μg/mL; Z: MPC@4 of greater than 10 μg/mL),Z (key: X: MPC@4 of less than 2 μg/mL; Y: MPC@4 of 2 μg/mL to 10 μg/mL; Z: MPC@4 of greater than 10 μg/mL),< 1720 nM,1720 to 6890 nM,,
"NC1(CC(=O)N[C@H]2CC[C@@H](CC(=O)O)OB2O)CCCCC1 [Compound 51, 2-((3R,6S)-3-(2-(1-aminocyclohexyl)acetamido)-2-hydroxy-1,2-oxaborinan-6-yl)acetic acid]",> 6410 nM,> 6410 nM,1600 to 6410 nM,> 6.41 µM,< 1600 nM,,,,,,,,,< 1600 nM,< 1600 nM,1.6 to 6.41 µM,
"O=C(O)C[C@@H]1CC[C@H](NC(=O)Cn2ccnc2-c2ccccc2)B(O)O1 [Compound 54, 2-((3R,6S)-2-hydroxy-3-(2-(2-phenyl-1H-imidazol-1-yl)acetamido)-1,2-oxaborinan-6-yl)acetic acid]",< 1400 nM,> 5600 nM,1400 to 5600 nM,> 5.6 µM,< 1400 nM,,,,,,,,,< 1400 nM,< 1400 nM,1.4 to 5.6 µM,
"Nc1nc(/C(=N/OCc2cc(=O)c(O)cn2O)C(=O)N[C@H]2CC[C@@H](CC(=O)O)OB2O)cs1 [Compound 62, 2-((3R)-3-((Z)-2-(2-aminothiazol-4-yl)-2-((1,5-dihydroxy-4-oxo-1,4-dihydropyridin-2-yl)methoxyimino)acetamido)-2-hydroxy-1,2-oxaborinan-6-yl)acetic acid]",1040 to 4160 nM,1040 to 4160 nM,> 4160 nM,> 4.16 µM,< 1040 nM,,,,,,,,,1040 to 4160 nM,< 1040 nM,> 4.16 µM,
"O=C(O)CC1CCC[C@H](NC(=O)Cc2cccs2)B(O)O1 (stereo partly drawn) [Compound 63, 2-((3R)-2-hydroxy-3-(2-(thiophen-2-yl)acetamido)-1,2-oxaborepan-7-yl)acetic acid]",1610 to 6430 nM,1610 to 6430 nM,1610 to 6430 nM,> 6.43 µM,1610 to 6430 nM,Z (key: X: MPC@4 of less than 2 μg/mL; Y: MPC@4 of 2 μg/mL to 10 μg/mL; Z: MPC@4 of greater than 10 μg/mL),Y (key: X: MPC@4 of less than 2 μg/mL; Y: MPC@4 of 2 μg/mL to 10 μg/mL; Z: MPC@4 of greater than 10 μg/mL),Z (key: X: MPC@4 of less than 2 μg/mL; Y: MPC@4 of 2 μg/mL to 10 μg/mL; Z: MPC@4 of greater than 10 μg/mL),Y (key: X: MPC@4 of less than 2 μg/mL; Y: MPC@4 of 2 μg/mL to 10 μg/mL; Z: MPC@4 of greater than 10 μg/mL),Y (key: X: MPC@4 of less than 2 μg/mL; Y: MPC@4 of 2 μg/mL to 10 μg/mL; Z: MPC@4 of greater than 10 μg/mL),Z (key: X: MPC@4 of less than 2 μg/mL; Y: MPC@4 of 2 μg/mL to 10 μg/mL; Z: MPC@4 of greater than 10 μg/mL),Z (key: X: MPC@4 of less than 2 μg/mL; Y: MPC@4 of 2 μg/mL to 10 μg/mL; Z: MPC@4 of greater than 10 μg/mL),Z (key: X: MPC@4 of less than 2 μg/mL; Y: MPC@4 of 2 μg/mL to 10 μg/mL; Z: MPC@4 of greater than 10 μg/mL),1610 to 6430 nM,1610 to 6430 nM,,
"O=C(O)C[C@@H]1CC[C@H](NC(=O)Cc2cc(F)cc(F)c2)B(O)O1 [Compound 66, 2-((3R,6S)-3-(2-(3,5-difluorophenyl)acetamido)-2-hydroxy-1,2-oxaborinan-6-yl)acetic acid]",1530 to 6110 nM,> 6110 nM,< 1530 nM,> 6.11 µM,< 1530 nM,,,,,,,,,< 1530 nM,< 1530 nM,,
